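Five concentrations, 48 hours, 96-well plates. The concentration for 50% growth inhibition is given as GI50.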 Activity calls are given as the source filed them. Rule as the data show it: active = GI50 up to about 1.1 µM and inactive = higher.
Assays:
Test in all cases: inhibition of tumour cell growth, NCI panel, 48 h
CCRF-CEM = system: CCRF-CEM
DU-145 = system: DU-145
MDA-MB-231 = system: MDA-MB-231
SK-MEL-5 = system: SK-MEL-5
SNB-19 = system: SNB-19
SK-OV-3 = system: SK-OV-3
HCT-116 = system: HCT-116
M14 = system: M14
K562 = system: K562
NCI-H460 = system: NCI-H460
IGROV-1 = system: IGROV-1
HL-60 = system: HL-60
UO-31 = system: UO-31
KM12 = system: KM12
A549 = system: A549
OVCAR-3 = system: OVCAR-3
NCI-H23 = system: NCI-H23
SW-620 = system: SW-620
RXF 393 = system: RXF 393

Measured: GI50

Oc1c2ccccc2c2c3c(cccc13)N=N2 [SP-600125]
inactive: CCRF-CEM 16.1 µM | DU-145 28.2 µM | MDA-MB-231 65.3 µM | SK-MEL-5 14.6 µM | SNB-19 50 µM | SK-OV-3 21 µM | HCT-116 44.6 µM | M14 > 100 µM | K562 48.6 µM | NCI-H460 9.86 µM | IGROV-1 11.4 µM | HL-60 42.1 µM | UO-31 10.5 µM | KM12 2.62 µM | A549 14.9 µM | OVCAR-3 15.3 µM | NCI-H23 23.8 µM | SW-620 10.9 µM | RXF 393 20.7 µM

N#CCc1nc(-c2ccccc2)n[nH]1
inactive: CCRF-CEM > 100 µM | DU-145 > 100 µM | MDA-MB-231 > 100 µM | SK-MEL-5 > 100 µM | SNB-19 74 µM | SK-OV-3 > 100 µM | HCT-116 > 100 µM | M14 > 100 µM | K562 76.6 µM | NCI-H460 > 100 µM | IGROV-1 > 100 µM | HL-60 > 100 µM | UO-31 > 100 µM | KM12 > 100 µM | A549 > 100 µM | OVCAR-3 > 100 µM | NCI-H23 > 100 µM | SW-620 > 100 µM | RXF 393 > 100 µM

CC(C)(C)OC(=O)N1CCC2(CC1)C(=O)NCN2c1ccccc1
inactive: CCRF-CEM > 100 µM | DU-145 > 100 µM | MDA-MB-231 > 100 µM | SK-MEL-5 > 100 µM | SNB-19 > 100 µM | SK-OV-3 > 100 µM | HCT-116 > 100 µM | M14 > 100 µM | K562 77.8 µM | NCI-H460 > 100 µM | IGROV-1 > 100 µM | HL-60 92.7 µM | UO-31 > 100 µM | KM12 > 100 µM | A549 > 100 µM | OVCAR-3 > 100 µM | NCI-H23 > 100 µM | SW-620 > 100 µM | RXF 393 > 100 µM

N=C(CC(=O)NOC(=O)c1ccccc1)NOC(=O)c1ccccc1
inactive: CCRF-CEM 38 µM | DU-145 > 100 µM | MDA-MB-231 > 100 µM | SK-MEL-5 36.2 µM | SNB-19 71.6 µM | SK-OV-3 28.7 µM | HCT-116 38.6 µM | M14 > 100 µM | K562 28.5 µM | NCI-H460 31.1 µM | IGROV-1 14.7 µM | HL-60 78.3 µM | UO-31 19.1 µM | KM12 46 µM | A549 32.4 µM | OVCAR-3 96.8 µM | NCI-H23 69.7 µM | SW-620 50.8 µM | RXF 393 10.8 µM

C=CC1(c2ccc3ccccc3c2)OCC(CC)(CC)CO1
inactive: CCRF-CEM 20.3 µM | DU-145 45.1 µM | MDA-MB-231 15.8 µM | SK-MEL-5 18.5 µM | SNB-19 17.3 µM | SK-OV-3 53.1 µM | HCT-116 21.3 µM | M14 19.9 µM | K562 25.1 µM | NCI-H460 22.1 µM | IGROV-1 21.9 µM | HL-60 21.6 µM | UO-31 32.7 µM | KM12 20.8 µM | A549 33.9 µM | OVCAR-3 25.2 µM | NCI-H23 20.1 µM | SW-620 14.9 µM | RXF 393 20 µM

COC(=O)CC1(O)C(/C=C/c2ccccc2)C(C(=O)OC)C(=O)C(C(=O)OC)C1C(=O)OC (stereo not given)
inactive: CCRF-CEM 48.3 µM | DU-145 > 100 µM | MDA-MB-231 > 100 µM | SK-MEL-5 > 100 µM | SNB-19 45.6 µM | SK-OV-3 > 100 µM | HCT-116 54 µM | M14 > 100 µM | K562 > 100 µM | NCI-H460 > 100 µM | IGROV-1 > 100 µM | HL-60 > 100 µM | UO-31 > 100 µM | KM12 > 100 µM | A549 > 100 µM | OVCAR-3 > 100 µM | NCI-H23 > 100 µM | SW-620 > 100 µM | RXF 393 > 100 µM

CC12ON(P(=O)(c3ccccc3)c3ccccc3)C(C)(c3ccccc31)c1ccccc12
inactive: CCRF-CEM 46.2 µM | DU-145 > 100 µM | MDA-MB-231 > 100 µM | SK-MEL-5 > 100 µM | SNB-19 > 100 µM | SK-OV-3 > 100 µM | HCT-116 > 100 µM | M14 > 100 µM | K562 88.3 µM | NCI-H460 67.5 µM | IGROV-1 > 100 µM | HL-60 55.6 µM | UO-31 > 100 µM | KM12 > 100 µM | A549 > 100 µM | OVCAR-3 > 100 µM | NCI-H23 > 100 µM | SW-620 > 100 µM | RXF 393 81.7 µM

O=C(O)c1nc2cc(Cl)ccc2[nH]c1=O
inactive: CCRF-CEM > 100 µM | DU-145 > 100 µM | MDA-MB-231 > 100 µM | SK-MEL-5 > 100 µM | SNB-19 > 100 µM | SK-OV-3 > 100 µM | HCT-116 > 100 µM | M14 > 100 µM | K562 > 100 µM | NCI-H460 > 100 µM | IGROV-1 > 100 µM | HL-60 > 100 µM | UO-31 > 100 µM | KM12 > 100 µM | A549 > 100 µM | OVCAR-3 > 100 µM | NCI-H23 > 100 µM | SW-620 > 100 µM | RXF 393 > 100 µM

CC(=O)c1[nH]c(Nc2ccc(C)cc2)c(C(=S)Nc2ccccc2)c1N
inactive: CCRF-CEM 21 µM | DU-145 16.3 µM | MDA-MB-231 16.5 µM | SK-MEL-5 15.6 µM | SNB-19 16.8 µM | SK-OV-3 34.3 µM | HCT-116 16.7 µM | M14 17.1 µM | K562 9.31 µM | NCI-H460 15.7 µM | IGROV-1 16.8 µM | HL-60 15.8 µM | UO-31 13.2 µM | KM12 15.9 µM | A549 14.9 µM | OVCAR-3 15.2 µM | NCI-H23 17.8 µM | SW-620 28.4 µM | RXF 393 13.3 µM

CC(C)(C)c1ccc(OCC(=O)O)c(Cl)c1
inactive: CCRF-CEM > 100 µM | DU-145 > 100 µM | MDA-MB-231 > 100 µM | SK-MEL-5 > 100 µM | SNB-19 > 100 µM | SK-OV-3 > 100 µM | HCT-116 > 100 µM | M14 > 100 µM | K562 > 100 µM | NCI-H460 > 100 µM | IGROV-1 > 100 µM | HL-60 > 100 µM | UO-31 > 100 µM | KM12 > 100 µM | A549 > 100 µM | OVCAR-3 60.4 µM | NCI-H23 > 100 µM | SW-620 > 100 µM | RXF 393 > 100 µM

From ChEMBL document CHEMBL1201862, “PubChem BioAssay data set” (2004)
